# ChEMBL document CHEMBL4257557, “Design, synthesis, and evaluation of 4,5,6,7-tetrahydrobenzo[d]thiazole-based novel dual kinase inhibitors of CK2 and GSK3β” (Medchemcomm, 2018)
# Assays:
# [1] = target: T1, Casein kinase II subunit alpha (Homo sapiens, UniProt P68400); test: Inhibition of recombinant full length human His-tagged CK2alpha1 expressed in baculovirus expression system at 11 uM using ser/thr-11 peptide as substrate measured after 1 hr by Z'-Lyte assay relative to control
# Target sequence in this assay (P68400 whole entry, looked up): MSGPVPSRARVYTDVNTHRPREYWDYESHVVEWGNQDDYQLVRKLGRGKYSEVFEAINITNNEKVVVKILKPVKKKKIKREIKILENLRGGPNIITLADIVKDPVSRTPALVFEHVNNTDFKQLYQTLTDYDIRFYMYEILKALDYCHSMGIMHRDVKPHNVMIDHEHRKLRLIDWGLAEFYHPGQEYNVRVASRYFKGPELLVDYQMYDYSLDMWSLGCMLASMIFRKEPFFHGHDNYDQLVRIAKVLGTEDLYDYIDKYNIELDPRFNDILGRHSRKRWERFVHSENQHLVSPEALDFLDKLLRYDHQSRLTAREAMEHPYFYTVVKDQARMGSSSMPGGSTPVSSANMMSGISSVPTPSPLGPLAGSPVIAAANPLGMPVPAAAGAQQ
# [2] = target: T2, Glycogen synthase kinase-3 beta (Homo sapiens, UniProt P49841); test: Inhibition of recombinant full length human His-tagged GSK3beta expressed in baculovirus expression system at 11 uM using ser/thr-9 peptide as substrate measured after 1 hr by Z'-Lyte assay relative to control
# Target sequence in this assay (P49841 whole entry, looked up): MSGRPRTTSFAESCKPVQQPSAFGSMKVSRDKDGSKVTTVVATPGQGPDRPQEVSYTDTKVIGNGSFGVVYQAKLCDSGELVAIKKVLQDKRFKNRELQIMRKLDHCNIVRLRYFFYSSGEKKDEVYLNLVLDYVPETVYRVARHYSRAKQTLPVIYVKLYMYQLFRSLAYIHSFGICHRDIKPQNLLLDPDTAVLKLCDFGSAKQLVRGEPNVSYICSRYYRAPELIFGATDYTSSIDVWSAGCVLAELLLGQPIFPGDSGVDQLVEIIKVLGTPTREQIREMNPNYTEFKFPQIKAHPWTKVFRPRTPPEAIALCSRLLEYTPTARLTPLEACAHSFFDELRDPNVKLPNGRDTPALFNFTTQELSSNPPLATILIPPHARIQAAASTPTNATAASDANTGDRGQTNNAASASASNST
# [3] = target: T1, Casein kinase II subunit alpha; test: Inhibition of recombinant full length human His-tagged CK2alpha1 expressed in baculovirus expression system using ser/thr-11 peptide as substrate measured after 1 hr by Z'-Lyte assay
# Target sequence in this assay (P68400 whole entry): as the sequence (P68400 whole entry, looked up) above
# [4] = target: T2, Glycogen synthase kinase-3 beta; test: Inhibition of recombinant full length human His-tagged GSK3beta expressed in baculovirus expression system using ser/thr-9 peptide as substrate measured after 1 hr by Z'-Lyte assay
# Target sequence in this assay (P49841 whole entry): as the sequence (P49841 whole entry, looked up) above
Structure (SMILES),inhibition [1],inhibition [2],IC50 [3],IC50 [4]
CCCN(C(=O)Nc1cccc(F)c1)C1CCc2nc(NCc3ccc(C(=O)O)cc3)sc2C1 (stereo not drawn),< 30%,< 30%,–,–
CCCN(C(=O)Nc1ccc(F)cc1)C1CCc2nc(NCc3ccc(C(=O)O)cc3)sc2C1 (stereo not drawn),< 30%,< 30%,–,–
CCCN(C(=O)Nc1ccc(OC)cc1)C1CCc2nc(NCc3ccc(C(=O)OC)cc3)sc2C1 (stereo not drawn),< 30%,< 30%,–,–
O=C(Nc1ccc(C(=O)O)cc1)Nc1nc2c(s1)CC(NC(=O)Nc1ccc(C(=O)O)cc1)CC2 (stereo not drawn),< 30%,< 30%,–,–
CCCN(C(=O)Nc1ccc(F)cc1)C1CCc2nc(NCc3ccc(C(=O)OC)cc3)sc2C1 (stereo not drawn),< 30%,< 30%,–,–
CCCN(C(=O)Nc1ccc(F)cc1)C1CCc2nc(NC(=O)Nc3ccc(F)cc3)sc2C1 (stereo not drawn),< 30%,< 30%,–,–
COc1ccc(NC(=O)Nc2nc3c(s2)CC(NC(=O)Nc2ccc(OC)cc2)CC3)cc1 (stereo not drawn),< 30%,< 30%,–,–
CCCN(C(=O)Nc1ccccc1F)C1CCc2nc(NCc3ccc(C(=O)OC)cc3)sc2C1 (stereo not drawn),< 30%,< 30%,–,–
O=C(Nc1ccc(F)cc1)Nc1nc2c(s1)CC(NC(=O)Nc1ccc(F)cc1)CC2 (stereo not drawn),< 30%,< 30%,–,–
CCCN(C(=O)Nc1ccc(OC)cc1)C1CCc2nc(NC(=O)Nc3ccc(OC)cc3)sc2C1 (stereo not drawn),< 30%,< 30%,–,–
CCCN(C(=O)Nc1ccc(C(=O)O)cc1)C1CCc2nc(NCc3ccc(C(=O)O)cc3)sc2C1 (stereo not drawn),< 30%,< 30%,–,–
CCCN(C(=O)Nc1cccc(F)c1)C1CCc2nc(NCc3ccc(C(=O)OC)cc3)sc2C1 (stereo not drawn),< 30%,< 30%,–,–
CCCN(C(=O)Nc1ccc(C(=O)OCC)cc1)C1CCc2nc(NCc3ccc(C(=O)OC)cc3)sc2C1 (stereo not drawn),< 30%,< 30%,–,–
CCCN(C(=O)Nc1ccccc1F)C1CCc2nc(NCc3ccc(C(=O)O)cc3)sc2C1 (stereo not drawn),< 30%,< 30%,–,–
CCCN(C(=O)Nc1ccc(OC)cc1)C1CCc2nc(NCc3ccc(C(=O)O)cc3)sc2C1 (stereo not drawn),< 30%,< 30%,–,–
CCCN(C(=O)Nc1ccc(C(=O)O)cc1)C1CCc2nc(NC(=O)Nc3ccc(C(=O)O)cc3)sc2C1 (stereo not drawn),< 30%,< 30%,–,–

# More lines, now with the values ahead:
inhibition [1],inhibition [2],IC50 [3],IC50 [4],Structure (SMILES)
< 30%,< 30%,–,–,CCCN(C(=O)Nc1ccccc1F)C1CCc2nc(NC(=O)Nc3ccccc3F)sc2C1 (stereo not drawn)
> 30%,> 30%,20.4 µM,2.5 µM,CCOC(=O)c1cccc(NC(=O)Nc2nc3c(s2)CC(NC(=O)Nc2cccc(C(=O)OCC)c2)CC3)c1 (stereo not drawn)
> 30%,> 30%,1.9 µM,0.67 µM,O=C(Nc1cccc(C(=O)O)c1)Nc1nc2c(s1)CC(N1C(=O)c3ccccc3C1=O)CC2 (stereo not drawn)
< 30%,< 30%,–,–,CCOC(=O)c1ccc(NC(=O)Nc2nc3c(s2)CC(NC(=O)Nc2ccc(C(=O)OCC)cc2)CC3)cc1 (stereo not drawn)
> 30%,> 30%,4 µM,11.4 µM,CCCN(C(=O)Nc1cccc(C(=O)O)c1)C1CCc2nc(NCc3ccc(C(=O)O)cc3)sc2C1 (stereo not drawn)
> 30%,> 30%,4.6 µM,13.6 µM,CCCN(C(=O)Nc1cccc(C(=O)OCC)c1)C1CCc2nc(NCc3ccc(C(=O)OC)cc3)sc2C1 (stereo not drawn)
> 30%,> 30%,4.9 µM,4.6 µM,O=C(Nc1ccc(C(=O)O)cc1)Nc1nc2c(s1)CC(N1C(=O)c3ccccc3C1=O)CC2 (stereo not drawn)
< 30%,< 30%,–,–,CCCN(C(=O)Nc1ccc(C(=O)OCC)cc1)C1CCc2nc(NC(=O)Nc3ccc(C(=O)OCC)cc3)sc2C1 (stereo not drawn)
< 30%,< 30%,–,–,O=C(Nc1nc2c(s1)CC(NC(=O)Nc1ccccc1F)CC2)Nc1ccccc1F (stereo not drawn)
< 30%,< 30%,–,–,CCCN(C(=O)Nc1cccc(C(=O)OCC)c1)C1CCc2nc(NC(=O)Nc3cccc(C(=O)OCC)c3)sc2C1 (stereo not drawn)
< 30%,< 30%,–,–,O=C(Nc1cccc(F)c1)Nc1nc2c(s1)CC(NC(=O)Nc1cccc(F)c1)CC2 (stereo not drawn)
> 30%,> 30%,12.4 µM,6 µM,O=C(Nc1cccc(C(=O)O)c1)Nc1nc2c(s1)CC(NC(=O)Nc1cccc(C(=O)O)c1)CC2 (stereo not drawn)
> 30%,> 30%,7.9 µM,5.3 µM,CCOC(=O)c1cccc(NC(=O)Nc2nc3c(s2)CC(N2C(=O)c4ccccc4C2=O)CC3)c1 (stereo not drawn)
< 30%,< 30%,–,–,O=C(Nc1nc2c(s1)CC(N1C(=O)c3ccccc3C1=O)CC2)Nc1ccccc1F (stereo not drawn)
< 30%,< 30%,–,–,O=C(Nc1cccc(F)c1)Nc1nc2c(s1)CC(N1C(=O)c3ccccc3C1=O)CC2 (stereo not drawn)
> 30%,> 30%,2.8 µM,1.5 µM,CCCN(C(=O)Nc1cccc(C(=O)O)c1)C1CCc2nc(NC(=O)Nc3cccc(C(=O)O)c3)sc2C1 (stereo not drawn)
< 30%,< 30%,–,–,O=C(Nc1ccc(F)cc1)Nc1nc2c(s1)CC(N1C(=O)c3ccccc3C1=O)CC2 (stereo not drawn)
< 30%,< 30%,–,–,CCOC(=O)c1ccc(NC(=O)Nc2nc3c(s2)CC(N2C(=O)c4ccccc4C2=O)CC3)cc1 (stereo not drawn)
< 30%,< 30%,–,–,CCCN(C(=O)Nc1cccc(F)c1)C1CCc2nc(NC(=O)Nc3cccc(F)c3)sc2C1 (stereo not drawn)
< 30%,< 30%,–,–,COc1ccc(NC(=O)Nc2nc3c(s2)CC(N2C(=O)c4ccccc4C2=O)CC3)cc1 (stereo not drawn)
